Reference: patent US20090088461A1, “Methods of Treating or Preventing Cardiac Disease Associated With a High Fat Diet” (Synvista Therapeutics, Inc., priority 2007, published 2009)
Several values for one entry are separate records, joined by “and”; a condition that tells them apart may be missing. Equal entries are not always repeated.

How the values were obtained:
[1] = molecular target: T1, AGE-BSA previously crosslinked to the collagen (Bos taurus, UniProt P02769); assay: Cross-Link Breaking Assay (sandwich enzyme immunoassay); type: biochemical; settings: for Breaking Anti-AGE: anti-AGE antibody; for Breaking Anti-BSA: anti-BSA antibody
T1 construct: Bovine Serum Albumin (Type V), (BSA) Calbiochem; purchased Calbiochem (BSA Type V); Collaborative Biomedical Products (Biocoat collagen plates)
T1 sequence (P02769 25-607): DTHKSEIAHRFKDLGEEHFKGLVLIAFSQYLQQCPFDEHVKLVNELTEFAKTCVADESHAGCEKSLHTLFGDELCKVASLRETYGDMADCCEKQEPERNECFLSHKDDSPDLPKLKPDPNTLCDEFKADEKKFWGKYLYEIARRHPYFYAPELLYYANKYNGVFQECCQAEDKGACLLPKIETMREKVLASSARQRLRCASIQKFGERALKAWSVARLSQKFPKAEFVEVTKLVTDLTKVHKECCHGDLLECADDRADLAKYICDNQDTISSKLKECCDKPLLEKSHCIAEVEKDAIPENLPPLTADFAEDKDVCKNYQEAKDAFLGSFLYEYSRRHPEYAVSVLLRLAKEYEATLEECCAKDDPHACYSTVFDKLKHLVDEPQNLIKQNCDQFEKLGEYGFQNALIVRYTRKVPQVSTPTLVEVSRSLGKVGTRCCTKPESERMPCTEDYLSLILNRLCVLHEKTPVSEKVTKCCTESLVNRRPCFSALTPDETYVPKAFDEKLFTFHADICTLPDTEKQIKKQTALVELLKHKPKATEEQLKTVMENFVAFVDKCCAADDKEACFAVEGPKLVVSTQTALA
T1 sequence (P02454 152-1207 partner limits assumed): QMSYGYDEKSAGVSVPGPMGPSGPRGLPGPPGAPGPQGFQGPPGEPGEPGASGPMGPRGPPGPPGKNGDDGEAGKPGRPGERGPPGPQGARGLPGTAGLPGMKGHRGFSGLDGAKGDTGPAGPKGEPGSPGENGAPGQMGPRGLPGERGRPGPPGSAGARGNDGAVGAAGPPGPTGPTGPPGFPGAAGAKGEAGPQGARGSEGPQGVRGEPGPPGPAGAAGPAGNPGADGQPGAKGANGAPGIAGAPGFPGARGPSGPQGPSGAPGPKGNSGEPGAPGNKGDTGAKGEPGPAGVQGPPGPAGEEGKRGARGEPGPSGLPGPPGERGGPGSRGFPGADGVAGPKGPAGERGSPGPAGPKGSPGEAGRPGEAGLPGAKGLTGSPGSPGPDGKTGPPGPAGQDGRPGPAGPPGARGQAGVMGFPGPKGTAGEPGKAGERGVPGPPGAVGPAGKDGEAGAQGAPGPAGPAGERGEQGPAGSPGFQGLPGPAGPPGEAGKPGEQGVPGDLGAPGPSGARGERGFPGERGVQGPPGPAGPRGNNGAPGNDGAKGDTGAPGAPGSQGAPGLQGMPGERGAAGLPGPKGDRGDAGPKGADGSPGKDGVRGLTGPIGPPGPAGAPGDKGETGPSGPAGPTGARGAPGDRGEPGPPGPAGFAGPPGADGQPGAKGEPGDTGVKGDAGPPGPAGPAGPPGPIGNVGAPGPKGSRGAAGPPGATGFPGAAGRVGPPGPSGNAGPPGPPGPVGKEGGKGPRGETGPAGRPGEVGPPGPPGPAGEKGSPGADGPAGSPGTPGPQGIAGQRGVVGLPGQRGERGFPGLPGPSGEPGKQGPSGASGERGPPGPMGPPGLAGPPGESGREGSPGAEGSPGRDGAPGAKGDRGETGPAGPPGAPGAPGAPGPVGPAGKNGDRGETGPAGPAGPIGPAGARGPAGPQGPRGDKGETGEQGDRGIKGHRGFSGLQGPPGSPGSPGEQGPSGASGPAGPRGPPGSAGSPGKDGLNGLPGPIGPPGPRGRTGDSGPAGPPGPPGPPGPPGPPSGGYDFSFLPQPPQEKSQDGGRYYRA
T1 sequence (P02466 86-1125 partner limits assumed): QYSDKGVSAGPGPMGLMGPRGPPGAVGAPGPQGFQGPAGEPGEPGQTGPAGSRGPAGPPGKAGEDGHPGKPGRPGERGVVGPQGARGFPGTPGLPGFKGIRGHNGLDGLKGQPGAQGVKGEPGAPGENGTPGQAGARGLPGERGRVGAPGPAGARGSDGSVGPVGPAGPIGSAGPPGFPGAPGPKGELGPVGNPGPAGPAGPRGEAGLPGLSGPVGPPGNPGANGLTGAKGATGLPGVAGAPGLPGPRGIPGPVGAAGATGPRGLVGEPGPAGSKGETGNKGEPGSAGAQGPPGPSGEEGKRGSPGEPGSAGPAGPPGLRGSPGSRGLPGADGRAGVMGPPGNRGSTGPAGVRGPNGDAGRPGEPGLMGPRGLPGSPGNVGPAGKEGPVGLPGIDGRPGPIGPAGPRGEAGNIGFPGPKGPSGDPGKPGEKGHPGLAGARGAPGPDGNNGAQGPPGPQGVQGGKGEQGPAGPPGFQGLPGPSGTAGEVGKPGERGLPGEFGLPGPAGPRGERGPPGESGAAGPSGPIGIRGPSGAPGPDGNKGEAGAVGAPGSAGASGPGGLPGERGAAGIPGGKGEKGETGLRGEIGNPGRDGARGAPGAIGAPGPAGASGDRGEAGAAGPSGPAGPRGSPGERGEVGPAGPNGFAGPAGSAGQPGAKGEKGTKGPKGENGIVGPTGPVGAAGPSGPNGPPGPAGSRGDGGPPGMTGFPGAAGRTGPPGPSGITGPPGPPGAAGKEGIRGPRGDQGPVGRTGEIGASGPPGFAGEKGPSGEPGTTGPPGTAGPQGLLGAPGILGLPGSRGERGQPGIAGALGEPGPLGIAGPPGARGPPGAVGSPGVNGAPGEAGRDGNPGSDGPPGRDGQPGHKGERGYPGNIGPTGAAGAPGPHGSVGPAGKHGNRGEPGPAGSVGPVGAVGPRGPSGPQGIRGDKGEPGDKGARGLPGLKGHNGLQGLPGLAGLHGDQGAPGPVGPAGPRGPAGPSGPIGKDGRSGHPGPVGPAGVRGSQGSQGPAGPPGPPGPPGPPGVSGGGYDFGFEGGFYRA
Description: The present invention also involves a novel sandwich enzyme immunoassay used to ascertain the ability of test compounds to “break” or reverse already formed advanced glycosylation endproducts by detecting the breaking of AGE (Advanced glycosylation endproduct) moieties from AGE-crosslinked protein. This assay comprises:
a) incubation of AGE-modified bovine serum albumin (AGE BSA) on collagen-coated wells of microtiter plates for a period of 2-6 hours' at a temperature of 37° C.
b) washing of the wells with PBS-Tween;
c) application of the test compounds to the washed wells of step b;
d) incubation of the test compounds applied to the washed wells for an additional 12-24 hours at a temperature of about 37° C.; and
e) detection of the AGE-breaking using an antibody raised against AGE-ribonuclease or cross-link breaking with an antibody against BSA.
In order to ascertain the ability of the compounds of the instant invention to “break” or reverse already formed advanced glycosylation endproducts, a novel sandwich enzyme immunoassay was developed which detects breaking of AGE (Advanced glycosylation endproduct) moieties from AGE-crosslinked protein. The assay utilizes collagen-coated 96 well microtiter plates that are obtained commercially. […] Following an incubation period of 16 hours (37° C.) cross-link-breaking is detected using an antibody raised against AGE-ribonuclease or with an antibody against BSA. […] Details of the assay are as follows:
1. AGE-BSA stock solutions were prepared as follows. Sodium phosphate buffer (0.4 M) was prepared by dissolving 6 grams of monobasic sodium phosphate in 100 ml of distilled water, 7 grams of dibasic sodium phosphate (0.4 M) in 100 ml of distilled water and adjusting the pH of the dibasic solution to 7.4 with the monobasic solution. Sodium azide (0.02 grams) was added per 100 ml volume to inhibit bacterial growth. The BSA solution was prepared as follows: 400 mg of Type V BSA (bovine serum albumin) was added for each ml of sodium phosphate buffer (above). A 400 mM glucose solution was prepared by dissolving 7.2 grams of dextrose in 100 ml of sodium phosphate buffer (above). The BSA and glucose solutions were mixed 1:1 and incubated at 37° C. for 12 weeks. The pH of the incubation mixture was monitored weekly and adjusted to pH 7.4 if necessary. After 12 weeks, the AGE-BSA solution was dialyzed against PBS for 48 hours with four buffer changes, each at a 1:500 ratio of solution to dialysis buffer. Protein concentration was determined by the micro-Lowry method. The AGE-BSA stock solution was aliquoted and stored at −20° C.
2. Working solutions for crosslinking and breaking studies were prepared as follows. Test compounds were dissolved in PBS and the pH was adjusted to pH 7.4 if necessary. AGE-BSA stock solution was diluted in PBS to measure maximum crosslinking and in the inhibitor solution for testing inhibitory activity of compounds. The concentration of AGE-BSA necessary to achieve the optimum sensitivity was determined by initial titration of each lot of AGE-BSA.
3. Wash buffer (“PBS-Tween”) was, prepared as follows. PBS was prepared by dissolving the following salts in one liter of distilled water: NaCl, 8 grams; KCl, 0.2 gram, KH2PO4. […] Tween-20 was added to a final concentration of 0.05% (vol/vol).
4. Substrates for detection of secondary antibody binding were prepared by diluting the HRP substrate buffer 1:10 in distilled water and mixing with ABTS chromogen 1:50 just prior to use.
1. Biocoat plates were blocked with 300 μl of “Superbloc”. Plates were blocked for one hour at room temperature and were washed with PBS-Tween three times with the Dynatech platewasher before addition of test reagents.
2. Each experiment was set up in the following manner. The first three wells of the Biocoat plate were used for the reagent blank. Fifty microliters of solutions AGE-BSA were added to test wells in triplicate and only PBS in blank wells.

[2] = molecular target: cross-linking of glycated bovine serum albumin (AGE-BSA) to the rat tail tendon collagen-coated 96-well plate (Bos taurus, UniProt P02769); assay: Cross-Linking Inhibition Assay; settings: for inhibition at 10000 µM: read-out: Relative Cross-link Inhibition (at 10 mM)
Sequence of cross-linking of glycated bovine serum albumin (AGE-BSA) to the rat tail tendon collagen-coated 96-well plate (P02769 25-607): as the sequence (P02769 25-607) above
Description: The following method was used to evaluate the ability of the compounds of the present invention to inhibit the cross-linking of glycated bovine serum albumin (AGE-BSA) to the rat tail tendon collagen-coated 96-well plate.
The blocking solution was removed from the wells by, washing the plate twice with PBS-'Tween 20 solution (0.05% Tween 20) using a NUNq-multiprobe or Dynatech ELISA-plate washer. Cross-linking of AGE-BSA (1 to 10 mg per well depending on the batch of AGE-BSA) to rat tail tendon collagen coated plate was performed with and without the testing ‘compound dissolved in PBS buffer at pH 7.4 at the desired concentrations by the, addition of 50 μl each of the AGE-BSA diluted in PBS or in the solution of test compound at 37° C. for 4 hours.
Unbrowned BSA in PBS buffer with or without testing compound were added to the separate wells as the blanks. The un-cross-linked AGE-BSA was then removed by washing the wells three times with PBS-Tween buffer. The amount of AGE-BSA cross-linked to the tail tendon collagen-coated plate was then quantitated using a polyclonal antibody raised against AGE-RNase. After a one-hour incubation period, AGE antibody was removed by washing 4 times with PBS-Tween.
The bound AGE antibody was then detected with the addition of horseradish peroxidase-conjugated secondary antibody—goat anti-rabbit immunoglobulin and incubation for 30 minutes. […] The reaction was allowed for an additional 15 minutes and the absorbance was read at 410 nm in a Dynatech plate reader.

IC50 [2] [µM] | Molecule | Breaking Anti-AGE ([1]; at 10 mM) | Breaking Anti-BSA ([1]; at 10 mM) | further results
– | 3-(2-(3′-methoxyphenyl]-2-oxoethyl)-thiazolium bromide | 22% | 44% | –
4500 | C[n+]1ccn(CC(=O)c2cc(C(C)(C)C)c(O)c(C(C)(C)C)c2)c1 [1-methyl-3-(2-(3′,5′-di-tert-butyl-4′-hydroxyphenyl)-2-oxoethyl]-imidazolium bromide] | 56% | 38% | –
– | Cc1cc(C)c(S(=O)(=O)[O-])c(C)c1.Nc1sc(-c2ccc3c(c2)OCCCO3)c[n+]1N [2,3-Diamino-5-(3′,4′-trimethylenedioxyphenyl)thiazolium mesitylene sulfonate] | – | – | Breaking Anti-AGE ([1]; at 1 mM): 13%; Breaking Anti-BSA ([1]; at 1 mM): 42%
– | Nc1sc2ccccc2[n+]1N [2,3-diaminio-benzothiazolium mesitylenesulfonate] | – | – | Breaking Anti-AGE ([1]; at 30 mM): 87%; Breaking Anti-BSA ([1]; at 30 mM): 54%
– | Nc1ccc2c(c1)sc(N)[n+]2CC(=O)c1ccc(Br)cc1.[Br-] [2,6-diamino-3 (2-(4′-bromophenyl)-2-oxoethyl]benzothiazolium bromide] | 27% | 44% | –
– | Nc1ccc2c(c1)sc(N)[n+]2CC(=O)c1ccc(F)cc1.[Br-] [2,6-diamino-3 (2-(4′-fluorophenyl-2-oxoethyl]benzothiazolium bromide] | 24% | 40% | –
– | COc1ccc(C(=O)C[n+]2c(N)sc3cc(N)ccc32)cc1.[Br-] [2,6-diamino-3 (2-(4′-methoxyphenyl)-2-oxoethyl]benzothiazolium bromide] | 29% | 35% | –
– | Cc1c(CCO)sc[n+]1CC(=O)c1ccc2c(c1)OCCO2.[Br-] [3 (2-(1′,4′-benzodioxan-6-yl)-2-oxoethyl]-4-methyl-5-(2′-hydroxyethyl)-thiazolium bromide] | – | – | Breaking Anti-AGE ([1]; at 3 mM): 11%; Breaking Anti-BSA ([1]; at 3 mM): 21%; Relative Cross-link Inhibition (at 10 mM) [2]: 13%
– | CCOC(=O)c1ccc(NC(=O)C[n+]2csc(CCO)c2C)cc1.[Br-] [3-(2-4′-carbethoxyanilino)-2-oxoethyl]-4-methyl-5-(2′-hydroxyethyl)-thiazolium bromide] | 48% | 57% | Relative Cross-link Inhibition ([2]; 1 mM): 8.8% (1 mm)
– | Cc1c(CCO)sc[n+]1CC(=O)Nc1c(C(C)C)cccc1C(C)C.[Br-] [3-(2-(2′,6′-Diisopropylanilino)-2-oxoethyl]-4-methyl-5-(2′-hydroxyethyl)-thiazolium bromide] | 31% | 48% | Relative Cross-link Inhibition (at 10 mM) [2]: 19%
– | O=C(C[n+]1ccsc1)c1ccc2c(c1)OCCCO2.[Br-] [3-(2-(3′,4′-trimethylenedioxyphenyl)-2-oxoethyl]-thiazolium bromide] | 17% | 18% | –
160 | Cc1sc[n+](CC(=O)c2cc(C(C)(C)C)c(O)c(C(C)(C)C)c2)c1C [3-(2-(3′,5′-di-tert-butyl-4′-hydroxypheny].)-2-oxoethyl]-4,5-dimethyl-thiazolium bromide] | – | – | –
– | C=Cc1sc[n+](CC(=O)c2cc(C(C)(C)C)c(O)c(C(C)(C)C)c2)c1C [3-(2-(3′,5′-tert-butyl-4′-hydroxyphenyl)-2-oxoethyl)-4-methyl-5-vinyl-thiazolium bromide] | – | – | Breaking Anti-AGE ([1]; at 0.3 mM): 32%; Breaking Anti-BSA ([1]; at 0.3 mM): 50%; IC50 (mM) Anti-BSA ([1]; detection with anti-BSA antibody): ND/0/60%
– | O=C(C[n+]1ccsc1)c1ccc(Br)cc1.[Br-] [3-(2-(4^1-bromophenyl]-2-oxoethyl)-thiazolium bromide] | – | – | Breaking Anti-AGE ([1]; at 30 mM): 76%; Breaking Anti-BSA ([1]; at 30 mM): 25%
1760 | COC(=O)c1ccc(NC(=O)C[n+]2csc(CCO)c2C)cc1O [3-(2-(4′-carbmethoxy-3′-hydroxyanilino)-2-oxoethyl]-4-methyl-5-(2′-hydroxyethyl)-thiazolium bromide] | 24% | 18% | –
– | CCCCCc1ccc(C(=O)C[n+]2csc(CCO)c2C)cc1.[Br-] [3-(2-(4′-n-pentylphenyl)-2-oxoethyl]-4-methyl-5-(2′-hydroxyethyl)-thiazolinium] | – | – | Relative Cross-link Inhibition ([2]; 3 mM): 52% @ 3 mM
2950 | Cc1c(CCO)sc[n+]1CC(=O)c1ccc(Br)cc1 [3-(2-(41-bromophenyl]-2-oxoethyl)-4-methyl-5-(2-hydroxyethyl)thiazolium bromide] | – | – | –
– | CCCCN(CCCC)C(=O)C[n+]1csc(CCO)c1C.[Br-] [3-(2-Dibutylamino-2-oxoethyl]-4-methyl-5-(2′-hydroxyethyl)-thiazolium bromide] | 25% | 38% | inhibition at 10000 µM [2]: 0.8%
530 | NC(=O)C[n+]1ccsc1 [3-(2-amino-2-oxoethyl)-thiazolium bromide] | – | – | –
– | COC(=O)C[n+]1csc(CCO)c1C [3-(2-methoxy-2-oxoethyl)-4-methyl-5-(2-hydroxyethyl)-thiazolium bromide] | – | – | inhibition at 10000 µM [2]: 38%
– | CC(=O)C[n+]1ccsc1.[Cl-] [3-(2-methyl-2-oxoethyl)thiazolium chloride] | – | – | IC50 ([1]; IC50 (mM) Anti-AGE, detection with anti-AGE antibody): 0.83 mM; IC50 ([1]; IC50 (mM) Anti-BSA, detection with anti-BSA antibody): 0.75 mM; Breaking Anti-AGE ([1]; concentration not given): 56%; Breaking Anti-BSA ([1]; concentration not given): 93%
12600 | Cc1c[n+](CC(=O)c2ccccc2)cs1 [3-(2-phenyl-2-oxoethyl)-5-methyl-thiazolium bromide] | – | – | –
– | CC(C)(C)C(=O)C[n+]1ccsc1.[Br-] [3-(2-tert-butyl-2-oxoethyl)-thiazolium bromide] | 28% | 37% | –
– | Cc1c(CCO)sc[n+]1Cc1c(Cl)cccc1Cl.[Cl-] [3-(2′,6′-dichlorobenzyl)-4-methyl-5-(2′-15 hydroxyethyl)-thiazolium chloride] | 6% | 27% | –
– | Cc1c(CCO)sc[n+]1Cc1ccccc1[N+](=O)[O-].[Br-] [3-(2′-nitrobenzyl)-4-methyl-5-(2′-hydroxyethyl)-thiazolium bromide] | 11% | 13% | –
– | COc1cccc(C[n+]2csc(CCO)c2C)c1.[Cl-] [3-(3′-methoxybenzyl)-4-methyl-5-(2′-hydroxyethyl)-thiazolium chloride] | 4% and 14% | 19% and 25% | –
– | Cc1c(CCO)sc[n+]1Cc1ccccc1.[Cl-] [3-benzyl-5-(2-hydroxyethyl)-4-methyl thiazolium chloride] | – | – | Breaking Anti-AGE ([1]; at 30 mM): 65%; Breaking Anti-BSA ([1]; at 30 mM): 61%

Molecule | IC50 [2] [µM] | Breaking Anti-AGE ([1]; at 10 mM) | Breaking Anti-BSA ([1]; at 10 mM) | further results
COC(=O)C[n+]1ccsc1.[Br-] [3-(2-Methoxy-2-Oxoethyl)-Thiazolium Bromide] | 250 | – | – | Breaking Anti-AGE ([1]; at 30 mM): 38%; Breaking Anti-BSA ([1]; at 30 mM): 41%
Cc1sc[n+](CC(N)=O)c1C.[Br-] [3-(2-amino-2-oxoethyl)-4,5-dimethyl-thiazolium bromide] | 9900 | – | – | Breaking Anti-AGE ([1]; at 30 mM): 61%; Breaking Anti-BSA ([1]; at 30 mM): 16%
Cc1c(CCO)sc[n+]1CC(N)=O.[Br-] [3-(2-amino-2-oxoethyl)-4-methyl-5-(2-hydroxyethyl)thiazolium bromide] | 1420 | – | – | Breaking Anti-AGE ([1]; concentration not given): 65%; Breaking Anti-BSA ([1]; concentration not given): 57%
